Test results from patent publication US20140051729A1, “COMPOSITIONS AND METHODS FOR TREATING DEGENERATIVE MUSCLE CONDITIONS” (University of Washington, priority 2011, published 2014).

How the values were obtained:
mdx mice = assay: EDL muscle myography in mdx mice; assay type: in vivo, mouse; conditions: THI IP twice-daily two weeks
Experimental: The effect of THI administration on muscle function and recovery in mdx mice was analyzed. The mice were injected intraperitoneally with THI in PBS or vehicle alone (PBS) twice-daily for two weeks. Total amount of THI delivered per day was 75 ug. Extensor digitorum longus (EDL) muscles were excised from the mice and equilibrated in ringer's solution with 95% O2/5% CO2 for a minimum of 15 minutes prior to stimulation. Myography was conducted using a DMT 820S myograph and data was recorded using PowerLab 4/30 acquisition system with LabChart Pro software v7.3.1 (both from ADI instruments, Colorado Springs, Colo.). Stimulations were conducted with a Grass Instrument S88X system (Grass Technologies, West Warwick, R.I.). Muscles were stimulated to establish optimal fiber length (Lf) and voltage at which maximum tetanic force was measured at 120 Hz within a 450 ms duration.
Specific force was calculated as previously described in Gregorevic P. et al. (Gregorevic P. et al., Muscle Nerve. 2004 September; 30(3):295-304, PMID#15318340) by normalizing to whole muscle cross-sectional area (CSA). CSA is the quotient of […] muscle mass over the optimal muscle length (Lo) which is defined as the product of muscle fiber length (Lf) with the fiber length ratio (0.44 for EDL) and mammalian muscle density (1.06).
Muscle recovery was measured after muscle was fatigued with stimulation over 6 minutes. […] Recovery was determined by examining muscle force at 5, 10, and 15 minutes after stimulation. […] Therefore, the administration of THI improved muscle recovery and function in dystrophic mice.
The effect of THI-oxime administration on muscle function and recovery in mdx mice was analyzed. The mice were injected intraperitoneally with THI-oxime (n=3) or PBS vehicle alone (n=4) twice-daily for two weeks and then analyzed between 1-4 days following the final day of injection. Total amount of THI-oxime delivered per day was 75 ug. Prior to euthanasia, the animals were anesthetized with 0.5 mg/g weight avertin diluted in PBS. EDL muscles were excised from the mice and equilibrated in ringer's solution (120 mM NaCl, 4.7 mM KCl, 3.15 mM MgCl2, 1.3 mM NaH2PO4, 25 mM NaHCO3, 11 mM Glucose, 1.25 mM CaCl2, pH 7.2) with 95% O2/5% CO2 for a minimum of 15 minutes prior to stimulation. All functional experiments were carried out with buffer solutions at 25° C. under constant oxygenation. Myography was conducted using a DMT 820S myograph and data was recorded using PowerLab 4/30 acquisition system with LabChart Pro software v7.3.1 (both from ADI instruments, Colorado Springs, Colo.). […] Muscles were stimulated to establish optimal fiber length (Lf) and voltage at which maximum tetanic force was measured at 120 Hz within a 450 ms duration. […]

S1P level = assay: S1P levels in tissues of CTX injured mdx mice after IP THI; assay type: in vivo, mouse; conditions: 5-month-old mdx males, IP THI 5 times during 3 days, day 4 post CTX, vs vehicle
Experimental: (a) Experimental schematic of THI (0.075 μg/day) and PBS (vehicle) treated mdx mice injected intraperitoneally (IP) twice daily for the first 72 hours following cardiotoxin (CTX) injury. Muscles, spleen or plasma from 5MO (n=6) mdx males were harvested for S1P and creatin kinase (CK) analysis at day 4 post CTX injury. Muscles from aged mdx mice (n=7 THI treated: 3 11MO females, 4 16MO males. n=6 vehicle: 3 11MO females, 3 16MO males) were harvested for histopathology analysis 18 days post CTX injury. […] (d) Quantification of Picrosirius Red staining indicates reduced fibrosis following injury in both Tibialis Anterior (TA) and Quadriceps (Quads) muscles in mice treated with THI. […] Scale bars=50 μm. (f) Oil Red-O staining depicts fat deposits (arrows) over the entire cross-sectional area of THI treated and control injured TAs. […] Error bars represent SEM.
The effects of THI in the dystrophic mdx mouse model were studied. […] THI was administered intraperitoneally (IP) to three groups of mdx mice. Right tibialis anterior (TA) and quadriceps muscles were uninjured, while left counterparts were injured using CTX, a well characterized model of acute injury where initial muscle destruction is followed by a rapid myogenic response. […] The effects of THI administration on the plasma creatine kinase (CK) activity level was also measured.

CC(=O)c1ncc([C@@H](O)[C@H](O)[C@H](O)CO)[nH]1 [THI, 1-[5-[(1R,2S,3R)-1,2,3,4-tetrahydroxybutyl]-1H-imidazol-2-yl]-ethanone]
maximum specific force of EDL muscle (mdx mice; 75 ug per day, vehicle 95.45): 134.29 KN/m^2
muscle fatigue with stimulation over 6 minutes (mdx mice; vs vehicle): fatigued at similar rates
muscle recovery (force at 5, 10 and 15 minutes after stimulation) (mdx mice; vs vehicle): improved recovery
S1P level in CTX injured quadriceps (S1P level): significantly increased
S1P level in spleen tissue (S1P level): significantly increased
